Assay [1] relates to HeLa (cervix carcinoma cells). Briefly: Cancer cell growth, MTT assay, HeLa. It is filed as cell-based, human. The settings on record: 24 h. As to the method: Figure 5. (A) Human cancer cell growth inhibition dose-response curves of 3-O-methyl-funicone (1). Various concentrations (0 to 150 μM) of compound 1 were incubated with human colon carcinoma (HCT116) cells (circle) and human cervix carcinoma (HeLa) cells (square) for 24 h. Rate of cell growth was determined by MTT assay as described in the Experimental section. Data are shown as the means ± SEM of five independent experiments. (B) Clonogenic survival of UV-treated HeLa cells by compound 1. Various concentrations (0 to 100 μM) of compound 1 were incubated with 10 J/m^2 UV-treated (closed circle) or untreated (open circle) HeLa cells. After 7 days, the number of colonies in each treatment group was counted. Values are the means ± SEM of two independent experiments.
Human colon carcinoma cell line, HCT116, was a kind gift from Dr. Bert Vogelstein (Johns Hopkins University, Baltimore, […], USA). Human cervix carcinoma cell line, HeLa, was obtained from Health Science Research Resources Bank (Osaka, Japan). The cells were maintained in McCoy’s 5A medium supplemented with 10% FBS, sodium bicarbonate (2 g/L) and streptomycin (100 μg/mL). The cells were cultured at 37 °C in standard medium in a humidified atmosphere of 5% CO2-95% air. […] After incubation for 24 h, the survival rate was determined by MTT (3-(4,5-dimethylthiazol-2-yl)-2,5-diphenyl tetrazolium bromide) assay.
On the technique in general: Formazan colour is commonly taken as a measure of viable cells.

In another assay the target is T1, fruit fly pol ɛ (Drosophila melanogaster, UniProt Q9VCN1).
T1 construct: purified from early embryos of Drosophila melanogaster; from tissue; host or cells: early embryos of Drosophila melanogaster
T1 sequence (Q9VCN1 whole entry): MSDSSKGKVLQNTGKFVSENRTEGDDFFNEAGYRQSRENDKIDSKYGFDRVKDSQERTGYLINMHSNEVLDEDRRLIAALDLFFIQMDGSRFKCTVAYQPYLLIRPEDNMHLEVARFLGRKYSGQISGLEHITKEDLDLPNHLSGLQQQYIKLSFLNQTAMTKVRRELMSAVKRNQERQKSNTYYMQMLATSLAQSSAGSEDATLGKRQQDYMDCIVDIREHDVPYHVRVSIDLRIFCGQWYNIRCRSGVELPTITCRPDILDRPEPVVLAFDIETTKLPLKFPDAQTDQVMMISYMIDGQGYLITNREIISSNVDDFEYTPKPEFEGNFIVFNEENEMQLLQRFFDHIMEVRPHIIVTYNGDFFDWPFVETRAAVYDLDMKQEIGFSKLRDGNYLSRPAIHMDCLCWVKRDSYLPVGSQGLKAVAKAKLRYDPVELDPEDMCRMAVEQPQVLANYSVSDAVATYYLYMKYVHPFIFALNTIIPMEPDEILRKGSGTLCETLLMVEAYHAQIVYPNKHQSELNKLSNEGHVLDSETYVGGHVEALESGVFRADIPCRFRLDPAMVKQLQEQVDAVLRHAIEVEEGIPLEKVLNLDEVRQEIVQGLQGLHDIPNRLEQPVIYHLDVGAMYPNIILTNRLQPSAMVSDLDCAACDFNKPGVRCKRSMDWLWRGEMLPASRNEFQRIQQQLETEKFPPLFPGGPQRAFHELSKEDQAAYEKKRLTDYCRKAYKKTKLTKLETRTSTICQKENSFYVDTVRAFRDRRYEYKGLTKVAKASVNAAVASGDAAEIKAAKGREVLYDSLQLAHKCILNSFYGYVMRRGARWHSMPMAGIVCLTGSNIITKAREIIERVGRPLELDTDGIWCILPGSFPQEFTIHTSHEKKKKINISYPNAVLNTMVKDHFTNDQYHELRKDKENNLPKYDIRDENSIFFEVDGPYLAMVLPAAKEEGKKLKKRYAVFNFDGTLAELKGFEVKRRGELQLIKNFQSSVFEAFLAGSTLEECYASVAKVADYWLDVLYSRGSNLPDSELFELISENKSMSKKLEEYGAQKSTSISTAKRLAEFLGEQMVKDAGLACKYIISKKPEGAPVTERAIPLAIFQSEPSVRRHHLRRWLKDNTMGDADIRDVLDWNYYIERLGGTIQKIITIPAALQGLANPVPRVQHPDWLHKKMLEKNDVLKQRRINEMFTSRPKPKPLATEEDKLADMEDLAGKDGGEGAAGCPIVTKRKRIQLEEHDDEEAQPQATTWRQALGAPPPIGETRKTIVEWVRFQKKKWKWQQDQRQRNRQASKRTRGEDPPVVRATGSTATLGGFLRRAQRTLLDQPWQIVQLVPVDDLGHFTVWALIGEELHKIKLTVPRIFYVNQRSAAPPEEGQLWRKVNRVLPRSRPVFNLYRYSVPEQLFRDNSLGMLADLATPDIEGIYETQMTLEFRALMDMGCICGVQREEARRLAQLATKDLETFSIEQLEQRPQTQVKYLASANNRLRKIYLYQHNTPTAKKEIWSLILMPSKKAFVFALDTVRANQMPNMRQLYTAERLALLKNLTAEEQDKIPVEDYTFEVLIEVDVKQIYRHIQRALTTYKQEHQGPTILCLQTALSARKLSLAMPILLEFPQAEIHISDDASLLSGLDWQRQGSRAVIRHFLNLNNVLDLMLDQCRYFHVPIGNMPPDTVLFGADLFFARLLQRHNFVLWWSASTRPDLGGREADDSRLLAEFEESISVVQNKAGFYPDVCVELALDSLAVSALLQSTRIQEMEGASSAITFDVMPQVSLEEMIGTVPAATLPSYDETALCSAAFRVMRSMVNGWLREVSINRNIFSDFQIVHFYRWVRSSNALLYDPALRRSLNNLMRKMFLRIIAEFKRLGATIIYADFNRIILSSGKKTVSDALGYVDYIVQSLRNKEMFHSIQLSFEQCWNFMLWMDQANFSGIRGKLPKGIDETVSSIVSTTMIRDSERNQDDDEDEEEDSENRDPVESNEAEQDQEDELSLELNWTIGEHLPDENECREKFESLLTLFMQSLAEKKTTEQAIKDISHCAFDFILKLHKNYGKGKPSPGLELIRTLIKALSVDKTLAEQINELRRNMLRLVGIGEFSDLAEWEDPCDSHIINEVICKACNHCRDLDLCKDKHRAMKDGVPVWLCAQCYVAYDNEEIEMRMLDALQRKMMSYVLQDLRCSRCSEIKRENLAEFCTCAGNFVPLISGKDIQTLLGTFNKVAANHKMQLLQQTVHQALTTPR
Briefly: DNA polymerase assay, insect pol ɛ. It is filed as biochemical. The settings on record: 100 μM. An excerpt:
(§1) Pol α was purified from calf thymus by immuno-affinity column chromatography, as described by Tamai et al.. Recombinant rat pol β was purified from E. coli JMpβ5, as described by Date et al.. The human pol γ catalytic gene was cloned into pFastBac. Histidine-tagged enzyme was expressed using the BAC-TO-BAC HT Baculovirus Expression System according to the supplier’s manual (Life Technologies, MD, USA) and purified using ProBoundresin (Invitrogen Japan, Tokyo, Japan). Human pols δ and ɛ were purified by nuclear fractionation of human peripheral blood cancer cells (Molt-4) using the second subunit of pols δ and ɛ-conjugated affinity column chromatography, respectively. A truncated form of human pol η (residues 1–511) tagged with His6 at its C-terminal was expressed in E. coli cells and purified as described by Kusumoto et al.. A recombinant mouse pol ι tagged with His6 at its C-terminal was expressed and purified by Ni-NTA column chromatography as described elsewhere (Masutani et al., in preparation). […]
(§2) The compounds were dissolved in distilled dimethyl sulfoxide (DMSO) at various concentrations and sonicated for 30 sec. […] Activity without the inhibitor was considered 100%, and the remaining activity at each concentration of the inhibitor was determined relative to this value. […]

The target of the next assay is T2, fruit fly pol α (Drosophila melanogaster, UniProt P26019).
T2 construct: purified from early embryos of Drosophila melanogaster; from tissue; host or cells: early embryos of Drosophila melanogaster
Briefly: DNA polymerase assay, insect pol α. It is filed as biochemical. The conditions noted are these: 100 μM.
Text: as §1, §2

Consider `C/C=C/c1occ(C(=O)c2c(OC)cc(OC)cc2C(=O)OC)c(=O)c1OC` [compound 1, 3-O-methylfunicone], for which, in assay [1], the “LD50, cell growth” value was found to be 63.3 µM. Besides, the “effect on fruit fly pol ɛ activity” value on fruit fly pol ɛ is reported as “hardly influenced”. In addition, the “effect on fruit fly pol α activity” value on fruit fly pol α is reported as “hardly influenced”.

The record behind these values is article PMC2810227, “3-O-Methylfunicone, a Selective Inhibitor of Mammalian Y-Family DNA Polymerases from an Australian Sea Salt Fungal Strain” (Marine Drugs, 2009).
